pIC50: −log10 of the molar value. Where “and” joins values, the source holds several entries; their conditions need not be identical. Equal entries are not always repeated.
Experiments:
[1] = molecular target: T1, CDKL5 (Homo sapiens, UniProt O76039); experiment: scanMAX binding assay, CDKL5; conditions: Percent of Control; legend and method: 1 μM; read-out: CDKL5 PoC @ 1 µM
T1 construct: purchased Eurofins DiscoverX Corporation
From the text: (§1) As described previously, this commercial assay platform screens against 403 WT human kinases in binding assays and provides PoC values ([73]).

[2] = molecular target: T2, ERK8 (Homo sapiens, UniProt Q8TD08); experiment: scanMAX binding assay, ERK8; conditions: Percent of Control; legend and method: 1 μM; read-out: ERK8 PoC @ 1 µM
T2 construct: purchased Eurofins DiscoverX Corporation
From the text: as §1

[3] = tested on: BAR reporter (β-catenin-dependent WNT signaling); experiment: BAR luciferase transcriptional reporter assay in HEK293T B/R cells; assay type: cell-based, human; conditions: for activation of the BAR reporter: HEK293T B/R cells, 10 μM compound for 18 h, compared with dimethyl sulfoxide and FP1
Description: All luciferase reporter assays were performed as previously described ([15], [43]). […] In both loss-of-function and gain-of-function experiments, treatments (WNT3A CM or drug) were added 18 h before harvesting cells. Conditions were plated in triplicate, and Renilla normalized values were averaged across triplicates to yield the data presented and standard error. Each assay was repeated in biological triplicate, unless otherwise stated. Firefly luciferase and the Renilla control were detected using the Promega Dual-Luciferase Reporter Assay System per the manufacturer’s protocol (Promega; catalog no.: E1960). Plates were read on the Victor Nivo plate reader (PerkinElmer).

[4] = molecular target: T3, CK1γ3 (Homo sapiens, UniProt Q9Y6M4); experiment: scanMAX binding assay, CK1γ3; conditions: Percent of Control; legend and method: 1 μM; read-out: CK1γ3 PoC @ 1 µM
T3 construct: purchased Eurofins
T3 sequence (Q9Y6M4 whole entry): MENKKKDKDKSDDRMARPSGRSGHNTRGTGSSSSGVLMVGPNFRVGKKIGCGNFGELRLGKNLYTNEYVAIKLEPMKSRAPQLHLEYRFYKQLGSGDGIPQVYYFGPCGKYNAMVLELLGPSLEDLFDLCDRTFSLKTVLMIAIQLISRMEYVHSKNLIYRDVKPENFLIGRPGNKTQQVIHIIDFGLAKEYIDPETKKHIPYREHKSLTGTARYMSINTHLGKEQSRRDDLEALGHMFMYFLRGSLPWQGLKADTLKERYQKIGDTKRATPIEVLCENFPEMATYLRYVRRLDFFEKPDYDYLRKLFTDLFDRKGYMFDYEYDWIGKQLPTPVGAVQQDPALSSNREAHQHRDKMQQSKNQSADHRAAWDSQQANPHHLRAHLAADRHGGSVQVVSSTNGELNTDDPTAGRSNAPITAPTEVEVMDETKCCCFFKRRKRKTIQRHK
From the text: as §1

[5] = molecular target: T4, PCTK1 (Homo sapiens, UniProt Q00536); experiment: scanMAX binding assay, PCTK1; conditions: Percent of Control; legend and method: 1 μM; read-out: PCTK1 PoC @ 1 µM
T4 construct: purchased Eurofins DiscoverX Corporation
T4 sequence (Q00536 whole entry): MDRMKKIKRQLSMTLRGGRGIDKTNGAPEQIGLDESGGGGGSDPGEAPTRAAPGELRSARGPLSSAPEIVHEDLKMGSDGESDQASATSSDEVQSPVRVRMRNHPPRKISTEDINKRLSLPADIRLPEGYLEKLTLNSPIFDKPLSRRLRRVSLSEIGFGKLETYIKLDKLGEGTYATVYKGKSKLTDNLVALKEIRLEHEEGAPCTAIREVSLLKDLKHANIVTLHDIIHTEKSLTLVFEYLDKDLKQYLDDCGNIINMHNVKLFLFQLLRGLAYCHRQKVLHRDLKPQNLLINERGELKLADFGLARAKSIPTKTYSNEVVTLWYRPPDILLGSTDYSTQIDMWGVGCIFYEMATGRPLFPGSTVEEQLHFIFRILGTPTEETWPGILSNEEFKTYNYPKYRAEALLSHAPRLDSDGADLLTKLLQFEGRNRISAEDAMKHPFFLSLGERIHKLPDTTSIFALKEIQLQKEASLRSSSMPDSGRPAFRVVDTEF
From the text: as §1

[6] = molecular target: T5, CK1γ1 (Homo sapiens, UniProt Q9HCP0); experiment: scanMAX binding assay, CK1γ1; conditions: Percent of Control; legend and method: 1 μM; read-out: CK1γ1 PoC @ 1 µM
T5 construct: purchased Eurofins
T5 sequence (Q9HCP0 whole entry): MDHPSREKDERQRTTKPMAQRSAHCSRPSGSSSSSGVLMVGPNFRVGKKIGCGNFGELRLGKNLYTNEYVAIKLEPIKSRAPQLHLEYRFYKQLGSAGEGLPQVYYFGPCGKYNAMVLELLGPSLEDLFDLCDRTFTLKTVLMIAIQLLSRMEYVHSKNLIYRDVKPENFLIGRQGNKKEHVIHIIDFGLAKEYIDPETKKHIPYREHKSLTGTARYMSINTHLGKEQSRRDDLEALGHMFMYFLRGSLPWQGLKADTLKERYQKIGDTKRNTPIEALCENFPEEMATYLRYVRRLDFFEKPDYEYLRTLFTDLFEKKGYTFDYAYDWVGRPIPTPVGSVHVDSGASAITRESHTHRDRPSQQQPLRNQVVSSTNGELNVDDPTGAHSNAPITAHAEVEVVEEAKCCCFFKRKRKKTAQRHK
From the text: as §1

[7] = molecular target: T3, CK1γ3; experiment: Eurofins kinase enzymatic radiometric assay, CK1γ3; assay type: biochemical; conditions: Km = ATP, 9-pt curve in duplicate
From the text: (§2) Details related to the substrate used, protein constructs, controls, and assay protocol for each kinase assay are included on the Eurofins website: https://www.eurofinsdiscoveryservices.com/.

[8] = molecular target: T6, PFTK1 (Homo sapiens, UniProt O94921); experiment: scanMAX binding assay, PFTK1; conditions: Percent of Control; legend and method: 1 μM; read-out: PFTK1 PoC @ 1 µM
T6 construct: purchased Eurofins DiscoverX Corporation
T6 sequence (O94921 whole entry): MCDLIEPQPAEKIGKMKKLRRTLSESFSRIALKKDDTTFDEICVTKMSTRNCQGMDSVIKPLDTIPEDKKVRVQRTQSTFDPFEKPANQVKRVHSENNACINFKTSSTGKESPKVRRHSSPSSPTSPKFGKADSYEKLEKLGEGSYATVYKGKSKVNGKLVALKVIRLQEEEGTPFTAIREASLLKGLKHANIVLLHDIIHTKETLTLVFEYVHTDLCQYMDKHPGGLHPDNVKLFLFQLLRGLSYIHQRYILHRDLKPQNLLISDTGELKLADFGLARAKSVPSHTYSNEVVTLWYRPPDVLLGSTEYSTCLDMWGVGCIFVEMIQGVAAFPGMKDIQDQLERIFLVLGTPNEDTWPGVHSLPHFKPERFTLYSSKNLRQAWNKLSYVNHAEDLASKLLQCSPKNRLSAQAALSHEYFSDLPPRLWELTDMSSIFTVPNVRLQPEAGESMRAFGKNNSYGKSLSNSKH
From the text: as §1

[9] = molecular target: T7, CK1γ2 (Homo sapiens, UniProt P78368); experiment: scanMAX binding assay, CK1γ2; conditions: Percent of Control; legend and method: 1 μM; read-out: CK1γ2 PoC @ 1 µM
T7 construct: purchased Eurofins
From the text: as §1

[10] = molecular target: T8, PCTK2 (Homo sapiens, UniProt Q00537); experiment: scanMAX binding assay, PCTK2; conditions: Percent of Control; legend and method: 1 μM; read-out: PCTK2 PoC @ 1 µM
T8 construct: purchased Eurofins DiscoverX Corporation
T8 sequence (Q00537 whole entry): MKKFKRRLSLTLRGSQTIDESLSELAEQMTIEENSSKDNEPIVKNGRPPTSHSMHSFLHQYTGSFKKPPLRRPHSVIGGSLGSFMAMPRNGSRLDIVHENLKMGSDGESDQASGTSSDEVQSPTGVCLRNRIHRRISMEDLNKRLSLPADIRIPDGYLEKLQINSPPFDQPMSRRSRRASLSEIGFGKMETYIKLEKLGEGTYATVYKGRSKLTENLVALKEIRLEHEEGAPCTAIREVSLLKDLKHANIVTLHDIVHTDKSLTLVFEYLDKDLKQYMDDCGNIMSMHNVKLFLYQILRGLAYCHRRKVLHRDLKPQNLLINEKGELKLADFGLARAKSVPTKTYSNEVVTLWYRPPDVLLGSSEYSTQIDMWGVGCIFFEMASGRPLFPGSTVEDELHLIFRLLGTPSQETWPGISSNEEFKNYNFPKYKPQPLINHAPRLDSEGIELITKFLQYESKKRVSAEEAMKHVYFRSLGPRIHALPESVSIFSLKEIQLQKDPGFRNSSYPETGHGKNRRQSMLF
From the text: as §1

[11] = molecular target: T9, CDK7 (Homo sapiens, UniProt P50613); experiment: scanMAX binding assay, CDK7; conditions: Percent of Control; legend and method: 1 μM; read-out: CDK7 PoC @ 1 µM
T9 construct: purchased Eurofins DiscoverX Corporation
T9 sequence (P50613 whole entry): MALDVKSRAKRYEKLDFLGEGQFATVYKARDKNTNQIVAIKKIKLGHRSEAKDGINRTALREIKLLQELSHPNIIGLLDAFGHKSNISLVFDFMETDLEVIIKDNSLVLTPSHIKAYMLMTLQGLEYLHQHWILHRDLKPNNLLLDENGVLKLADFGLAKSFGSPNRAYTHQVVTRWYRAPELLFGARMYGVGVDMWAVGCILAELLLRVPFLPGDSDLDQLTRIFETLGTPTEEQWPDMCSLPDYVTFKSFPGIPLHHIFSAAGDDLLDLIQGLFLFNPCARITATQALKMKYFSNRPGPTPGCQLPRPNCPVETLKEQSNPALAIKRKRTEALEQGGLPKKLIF
From the text: as §1

[12] = molecular target: T5, CK1γ1; experiment: Eurofins kinase enzymatic radiometric assay, CK1γ1; assay type: biochemical; conditions: Km = ATP, 9-pt curve in duplicate
From the text: as §2

[13] = molecular target: T10, DYRK1B (Homo sapiens, UniProt Q9Y463); experiment: scanMAX binding assay, DYRK1B; conditions: Percent of Control; legend and method: 1 μM; read-out: DYRK1B PoC @ 1 µM
T10 construct: purchased Eurofins DiscoverX Corporation
T10 sequence (Q9Y463 whole entry): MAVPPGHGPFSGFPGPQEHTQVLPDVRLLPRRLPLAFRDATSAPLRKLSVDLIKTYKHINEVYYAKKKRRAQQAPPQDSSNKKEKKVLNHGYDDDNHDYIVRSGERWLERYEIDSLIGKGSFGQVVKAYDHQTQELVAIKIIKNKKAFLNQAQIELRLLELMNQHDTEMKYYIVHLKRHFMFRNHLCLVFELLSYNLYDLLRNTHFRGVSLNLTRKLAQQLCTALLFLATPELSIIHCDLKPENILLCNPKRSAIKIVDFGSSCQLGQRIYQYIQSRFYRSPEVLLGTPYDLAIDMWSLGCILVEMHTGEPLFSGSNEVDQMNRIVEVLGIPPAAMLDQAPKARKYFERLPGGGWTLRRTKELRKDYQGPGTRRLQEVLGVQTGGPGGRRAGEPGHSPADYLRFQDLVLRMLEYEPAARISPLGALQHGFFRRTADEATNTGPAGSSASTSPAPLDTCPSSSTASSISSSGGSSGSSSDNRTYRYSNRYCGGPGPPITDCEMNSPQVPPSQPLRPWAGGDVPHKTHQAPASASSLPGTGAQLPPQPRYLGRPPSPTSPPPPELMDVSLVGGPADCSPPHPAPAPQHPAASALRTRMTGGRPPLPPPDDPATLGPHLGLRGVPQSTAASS
From the text: as §1

[14] = molecular target: T11, PCTK3 (Homo sapiens, UniProt Q07002); experiment: scanMAX binding assay, PCTK3; conditions: Percent of Control; legend and method: 1 μM; read-out: PCTK3 PoC @ 1 µM
T11 construct: purchased Eurofins DiscoverX Corporation
From the text: as §1

[15] = molecular target: T12, ICK (Homo sapiens, UniProt Q9UPZ9); experiment: scanMAX binding assay, ICK; conditions: Percent of Control; legend and method: 1 μM; read-out: ICK PoC @ 1 µM
T12 construct: purchased Eurofins DiscoverX Corporation
From the text: as §1

[16] = molecular target: T13, CAMK1B (Homo sapiens, UniProt Q6P2M8); experiment: scanMAX binding assay, CAMK1B; conditions: Percent of Control; legend and method: 1 μM; read-out: CAMK1B PoC @ 1 µM
T13 construct: purchased Eurofins DiscoverX Corporation
T13 sequence (Q6P2M8 whole entry): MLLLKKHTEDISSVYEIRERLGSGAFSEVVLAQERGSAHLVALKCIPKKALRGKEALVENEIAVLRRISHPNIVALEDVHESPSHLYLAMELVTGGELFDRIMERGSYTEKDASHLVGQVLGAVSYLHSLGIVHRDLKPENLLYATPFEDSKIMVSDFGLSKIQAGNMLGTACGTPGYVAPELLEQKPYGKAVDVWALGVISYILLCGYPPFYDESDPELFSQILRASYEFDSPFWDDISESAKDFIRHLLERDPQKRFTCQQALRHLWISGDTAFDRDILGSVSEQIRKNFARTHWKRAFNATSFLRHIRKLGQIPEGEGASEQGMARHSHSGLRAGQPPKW
From the text: as §1

[17] = molecular target: T14, DCAMKL3 (Homo sapiens, UniProt Q9C098); experiment: scanMAX binding assay, DCAMKL3; conditions: Percent of Control; legend and method: 1 μM; read-out: DCAMKL3 PoC @ 1 µM
T14 construct: purchased Eurofins DiscoverX Corporation
T14 sequence (Q9C098 whole entry): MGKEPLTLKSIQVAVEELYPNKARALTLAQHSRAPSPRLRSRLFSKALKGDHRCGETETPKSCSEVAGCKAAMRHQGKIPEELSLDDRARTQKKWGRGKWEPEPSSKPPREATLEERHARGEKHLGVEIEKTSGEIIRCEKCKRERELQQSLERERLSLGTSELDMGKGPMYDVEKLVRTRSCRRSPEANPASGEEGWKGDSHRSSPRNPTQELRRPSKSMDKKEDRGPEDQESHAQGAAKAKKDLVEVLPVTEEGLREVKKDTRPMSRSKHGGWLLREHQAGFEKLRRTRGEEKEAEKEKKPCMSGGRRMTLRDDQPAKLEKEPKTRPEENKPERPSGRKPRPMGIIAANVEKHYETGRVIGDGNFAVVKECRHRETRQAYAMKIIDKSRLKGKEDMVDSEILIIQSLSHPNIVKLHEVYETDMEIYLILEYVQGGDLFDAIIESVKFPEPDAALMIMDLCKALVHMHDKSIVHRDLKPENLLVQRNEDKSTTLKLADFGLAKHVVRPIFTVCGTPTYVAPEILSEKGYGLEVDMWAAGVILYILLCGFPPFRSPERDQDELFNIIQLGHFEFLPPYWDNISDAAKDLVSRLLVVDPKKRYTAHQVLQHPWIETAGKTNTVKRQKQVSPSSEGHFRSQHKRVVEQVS
From the text: as §1

[18] = molecular target: T15, GSK3β (Homo sapiens, UniProt P49841); experiment: scanMAX binding assay, GSK3β; conditions: Percent of Control; legend and method: 1 μM; read-out: GSK3β PoC @ 1 µM
T15 construct: purchased Eurofins DiscoverX Corporation
From the text: as §1

[19] = molecular target: T16, GSK3α (Homo sapiens, UniProt P49840); experiment: scanMAX binding assay, GSK3α; conditions: Percent of Control; legend and method: 1 μM; read-out: GSK3α PoC @ 1 µM
T16 construct: purchased Eurofins DiscoverX Corporation
T16 sequence (P49840 whole entry): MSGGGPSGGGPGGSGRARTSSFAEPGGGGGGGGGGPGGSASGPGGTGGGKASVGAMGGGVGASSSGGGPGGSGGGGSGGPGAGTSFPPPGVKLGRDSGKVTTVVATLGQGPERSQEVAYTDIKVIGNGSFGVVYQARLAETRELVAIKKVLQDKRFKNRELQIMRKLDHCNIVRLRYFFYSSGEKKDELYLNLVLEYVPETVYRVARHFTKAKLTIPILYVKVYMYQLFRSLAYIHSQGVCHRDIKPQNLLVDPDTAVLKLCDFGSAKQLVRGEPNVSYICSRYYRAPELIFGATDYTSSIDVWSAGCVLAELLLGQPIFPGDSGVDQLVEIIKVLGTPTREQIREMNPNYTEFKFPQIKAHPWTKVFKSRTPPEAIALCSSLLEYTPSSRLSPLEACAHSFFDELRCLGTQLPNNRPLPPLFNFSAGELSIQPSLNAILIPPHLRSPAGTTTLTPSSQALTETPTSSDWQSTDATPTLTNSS
From the text: as §1

[20] = molecular target: T17, DYRK2 (Homo sapiens, UniProt Q92630); experiment: scanMAX binding assay, DYRK2; conditions: Percent of Control; legend and method: 1 μM; read-out: DYRK2 PoC @ 1 µM
T17 construct: purchased Eurofins DiscoverX Corporation
From the text: as §1

[21] = molecular target: T18, GSK3β (NLuc-GSK3β) (Homo sapiens, UniProt P49841); experiment: NanoBRET cellular target engagement assay, NLuc-GSK3β in HEK293T cells; assay type: cell-based; conditions: live HEK293T cells, 0.063 μM tracer K-8; read-out: NL-GSK3β NanoBRET IC50
T18 construct: host or cells: HEK293T
Description: (§3) HEK293T cells (hypotriploid, fetal) were purchased from ATCC. These cells were grown in Dulbecco’s modified Eagle’s medium (Gibco) supplemented with 10% (v/v) fetal bovine serum (Corning). They were incubated in 5% CO2 at 37 °C and passaged every 72 h with trypsin and not allowed to reach confluency. Constructs for NanoBRET measurements of CK1γ2 (NLuc-CK1γ2) and GSK3β (NLuc-GSK3β) were kindly provided by Promega. NanoBRET assays were carried out as described previously ([74]). Preferred NLuc orientations, both N-terminal in this case, are indicated in parentheses after each construct. Assays were carried out in dose–response as described by the manufacturer using 0.5 μM of tracer K-10 for CK1γ2 and 0.063 μM of tracer K-8 for GSK3β. Two biological replicates were executed with two technical replicates to produce the graphs with error bars shown in Figures 6E, 7E, 8, A and B. Tracer titration curves for these kinases that motivated our tracer selection and working concentration can be found on the Promega website.

[22] = molecular target: T19, CK1γ2 (NLuc-CK1γ2) (Homo sapiens, UniProt P78368); experiment: NanoBRET cellular target engagement assay, NLuc-CK1γ2 in HEK293T cells; assay type: cell-based; conditions: live HEK293T cells, 0.5 μM tracer K-10
T19 construct: host or cells: HEK293T
Description: as §3

[23] = tested on: β-catenin-dependent transcription; conditions: siRNA screen, BAR firefly luciferase reporter, ref Biechele et al, cited from earlier work; for Average BAR firefly Luciferase (Raw): raw signal per siRNA target

For `CN(C)CC(=O)Nc1n[nH]c2ccc(-c3cn(Cc4ccccc4)nn3)cc12` [AKI00000062a], which remaining binding at 1 µM [1] is on record?
Its remaining binding at 1 µM is 0.2%.

What about the remaining binding at 1 µM [2] of the same compound?
Its remaining binding at 1 µM is 2.5%.

What about the “activation of the BAR reporter” value [3] of the same compound?
The value was “robustly activated”.

What about the remaining binding at 1 µM [4] of the same compound?
Its remaining binding at 1 µM is 3.3%.

What about the remaining binding at 1 µM [5] of the same compound?
Its remaining binding at 1 µM is 0.2%.

And the remaining binding at 1 µM [6]?
The remaining binding at 1 µM was 5.2%.

What about the pIC50 [7] of the same compound?
The pIC50 was ≥ 6.56 and 6.77.

And the remaining binding at 1 µM [8]?
The remaining binding at 1 µM was 3.5%.

What about the remaining binding at 1 µM [9] of the same compound?
The remaining binding at 1 µM was 1%.

What about the remaining binding at 1 µM [10] of the same compound?
Its remaining binding at 1 µM is 1.4%.

What about the remaining binding at 1 µM [11] of the same compound?
Its remaining binding at 1 µM is 1.2%.

What about the pIC50 [12] of the same compound?
The pIC50 was ≥ 6.56 and 6.56.

What about the remaining binding at 1 µM [13] of the same compound?
The remaining binding at 1 µM was 6%.

And the remaining binding at 1 µM [14]?
The remaining binding at 1 µM was 1.2%.

What about the remaining binding at 1 µM [15] of the same compound?
Its remaining binding at 1 µM is 1.6%.

And the remaining binding at 1 µM [16]?
Its remaining binding at 1 µM is 0%.

What about the remaining binding at 1 µM [17] of the same compound?
The remaining binding at 1 µM was 1.9%.

And the remaining binding at 1 µM [18]?
The remaining binding at 1 µM was 0.4%.

What about the remaining binding at 1 µM [19] of the same compound?
The remaining binding at 1 µM was 0.9%.

And the remaining binding at 1 µM [20]?
Its remaining binding at 1 µM is 7.2%.

Which results are given for `Cc1cc(Nc2cc(C3CC3)[nH]n2)nc(Nc2ccc(CC#N)cc2)n1` [APY69, reference compound]?
pIC50 [21]: 9.64; NL-CK1γ2 NanoBRET IC50 [22]: inactive

For `Cc1cc(-c2ccc(CC(=O)Nc3ccc(-c4cccnc4)cc3)cc2)ccn1` [C59, reference compound], which “BAR activation by CK1γ3 overexpression in the absence of WNT3A CM” value ([3]; HEK293T B/R cells transfected 14 h, 10 μM C59 for 18 h) is on record?
The value was “blocked this activation”.

Which “activation of the BAR reporter” value [3] does the source give for `Cc1c[nH]c(-c2cnc(NCCNc3ccc(C#N)cn3)nc2-c2ccc(Cl)cc2Cl)n1` [CHIR99021, reference compound] here?
Its value is “robustly activated”.

For EPHA2, which “Fold over control siRNA” value [23] is on record?
Its value is 0.4994.

And the “Average BAR firefly Luciferase (Raw)” value [23]?
The value was 13210.

For ERBB2, which “Fold over control siRNA” value [23] is on record?
Its value is 3.138.

And the “Average BAR firefly Luciferase (Raw)” value [23]?
Its value is 83000.
